Laboratory results: ChEMBL document CHEMBL3046218, “Characterization of sensitivity of Rhizoctonia solani, causing rice sheath blight, to mepronil and boscalid” (Crop Prot, 2009)
Converted amounts (≈) assume the structure as drawn.

Experiments:
Rhizoctonia solani [1] = experiment: Antifungal activity against mepronil-resistant Rhizoctonia solani JSR3 after 2 days; assay type: functional, organism-based; conditions: JSR3, 48 h
Rhizoctonia solani [2] = experiment: Antifungal activity against mepronil-resistant Rhizoctonia solani JSR2 after 2 days; assay type: functional, organism-based; conditions: JSR2, 48 h
Rhizoctonia solani [3] = experiment: Antifungal activity against mepronil-resistant Rhizoctonia solani JSR1 after 2 days; assay type: functional, organism-based; conditions: JSR1, 48 h
Rhizoctonia solani [4] = experiment: Antifungal activity against mepronil-sensitive wild type Rhizoctonia solani JS7 after 2 days; assay type: functional, organism-based; conditions: JS7, 48 h
Rhizoctonia solani [5] = experiment: Antifungal activity against mepronil-resistant Rhizoctonia solani ZJR2 after 2 days; assay type: functional, organism-based; conditions: ZJR2, 48 h
Rhizoctonia solani [6] = experiment: Antifungal activity against mepronil-resistant Rhizoctonia solani ZJR3 after 2 days; assay type: functional, organism-based; conditions: ZJR3, 48 h
Rhizoctonia solani [7] = experiment: Antifungal activity against mepronil-resistant Rhizoctonia solani ZJR1 after 2 days; assay type: functional, organism-based; conditions: ZJR1, 48 h
Rhizoctonia solani [8] = experiment: Antifungal activity against mepronil-sensitive wild type Rhizoctonia solani ZJ-1 after 2 days; assay type: functional, organism-based; conditions: ZJ-1, 48 h
Rhizoctonia solani [9] = experiment: Resistant factor, ratio of EC50 for mepronil-resistant Rhizoctonia solani ZJR1 to EC50 for mepronil-sensitive wild type Rhizoctonia solani ZJ-1; assay type: functional
Rhizoctonia solani [10] = experiment: Resistant factor, ratio of EC50 for mepronil-resistant Rhizoctonia solani JSR3 to EC50 for mepronil-sensitive wild type Rhizoctonia solani JS7; assay type: functional
Rhizoctonia solani [11] = experiment: Resistant factor, ratio of EC50 for mepronil-resistant Rhizoctonia solani JSR2 to EC50 for mepronil-sensitive wild type Rhizoctonia solani JS7; assay type: functional
Rhizoctonia solani [12] = experiment: Resistant factor, ratio of EC50 for mepronil-resistant Rhizoctonia solani JSR1 to EC50 for mepronil-sensitive wild type Rhizoctonia solani JS7; assay type: functional
Rhizoctonia solani [13] = experiment: Resistant factor, ratio of EC50 for mepronil-resistant Rhizoctonia solani ZJR3 to EC50 for mepronil-sensitive wild type Rhizoctonia solani ZJ-1; assay type: functional
Rhizoctonia solani [14] = experiment: Resistant factor, ratio of EC50 for mepronil-resistant Rhizoctonia solani ZJR2 to EC50 for mepronil-sensitive wild type Rhizoctonia solani ZJ-1; assay type: functional

Row | SMILES | EC50 (Rhizoctonia solani [1]) [µg/mL] | EC50 (Rhizoctonia solani [2]) [µg/mL] | EC50 (Rhizoctonia solani [3]) [µg/mL] | EC50 (Rhizoctonia solani [4]) [µg/mL] | EC50 (Rhizoctonia solani [5]) [µg/mL] | EC50 (Rhizoctonia solani [6]) [µg/mL] | EC50 (Rhizoctonia solani [7]) [µg/mL] | EC50 (Rhizoctonia solani [8]) [µg/mL] | Ratio EC50 (Rhizoctonia solani [9]) | Ratio EC50 (Rhizoctonia solani [10]) | Ratio EC50 (Rhizoctonia solani [11]) | Ratio EC50 (Rhizoctonia solani [12]) | Ratio EC50 (Rhizoctonia solani [13]) | Ratio EC50 (Rhizoctonia solani [14])
1 | OCC1=C[C@H](N[C@H]2C[C@H](CO)[C@@H](O[C@@H]3O[C@H](CO)[C@@H](O)[C@H](O)[C@H]3O)[C@H](O)[C@H]2O)[C@H](O)[C@@H](O)[C@@H]1O [VALIDAMYCIN] | 0.14 (≈ 0.281 µM) | 0.18 (≈ 0.362 µM) | 0.16 (≈ 0.322 µM) | 0.18 (≈ 0.362 µM) | 0.09 (≈ 0.181 µM) | 0.1 (≈ 0.201 µM) | 0.08 (≈ 0.161 µM) | 0.09 (≈ 0.181 µM) | – | – | – | – | – | –
2 | CO/N=C(/C(=O)OC)c1ccccc1COc1ccccc1C [KRESOXIM-METHYL] | 0.16 (≈ 0.511 µM) | 0.14 (≈ 0.447 µM) | 0.2 (≈ 0.638 µM) | 0.16 (≈ 0.511 µM) | 0.29 (≈ 0.925 µM) | 0.37 (≈ 1.18 µM) | 0.33 (≈ 1.05 µM) | 0.34 (≈ 1.09 µM) | – | – | – | – | – | –
3 | O=C(Nc1ccccc1-c1ccc(Cl)cc1)c1cccnc1Cl [BOSCALID] | 2.08 (≈ 6.06 µM) | 2.13 (≈ 6.21 µM) | 2.26 (≈ 6.58 µM) | 2.15 (≈ 6.26 µM) | 2.15 (≈ 6.26 µM) | 1.93 (≈ 5.62 µM) | 1.87 (≈ 5.45 µM) | 1.98 (≈ 5.77 µM) | – | – | – | – | – | –
4 | CO/C=C(/C(=O)OC)c1ccccc1Oc1cc(Oc2ccccc2C#N)ncn1 [AZOXYSTROBIN] | 0.19 (≈ 0.471 µM) | 0.18 (≈ 0.446 µM) | 0.17 (≈ 0.421 µM) | 0.19 (≈ 0.471 µM) | 0.34 (≈ 0.843 µM) | 0.32 (≈ 0.793 µM) | 0.32 (≈ 0.793 µM) | 0.32 (≈ 0.793 µM) | – | – | – | – | – | –
5 | Cc1ccccc1C(=O)Nc1cccc(OC(C)C)c1 [MEPRONIL] | 20.6 (≈ 76.3 µM) | 14.2 (≈ 52.6 µM) | 8.56 (≈ 31.8 µM) | 0.098 (≈ 0.364 µM) | 12.7 (≈ 47 µM) | 20.8 (≈ 77.3 µM) | 13.5 (≈ 50.3 µM) | – | 116.7 | 209.8 | 144.5 | 87.3 | 179.5 | 109.2
